Assay results as given in article PMC6956158, “In Vitro and In Vivo Assessment of Metabolic Drug Interaction Potential of Dutasteride with Ketoconazole” (Pharmaceutics, 2019).
Read-outs that look alike come from different tables or passages of the source.

Experiments:
[1] = cited from earlier work
[2] = Blood-to-plasma concentration ratio (RB), blood distribution; type: in vitro ADME; details: rat, fresh rat blood, 37 °C
Description: (§1) To investigate the metabolic interaction potential between DUT and KET, the disappearance of DUT (5 μM) in RLM and HLM was determined under the absence and presence of KET at various concentrations ranging from 1 to 5000 nM. A microsomal reaction mixture was prepared as follows (total volume: 0.2 mL): 1 mM NADPH, 10 mM MgCl2, substrate (DUT), and inhibitor (KET), RLM or HLM (1 mg/mL), and 50 mM phosphate buffer. At 0 and 90 min after starting the metabolic reaction, a 50 μL aliquot of microsomal incubation mixture was sampled and immediately transferred into a clean 1.5 mL microcentrifuge tube containing 100 μL cold ACN with an internal standard (celecoxib at 400 ng/mL) to stop the metabolic reaction. After vortex mixing and centrifugation at 15,000× g for 10 min, a 100 μL aliquot of the supernatant was stored at −80 °C. The unbound fractions of DUT in rat plasma, RLM, human plasma, and HLM were measured using a rapid equilibrium dialysis (RED) device (Thermo Fisher Scientific, Inc., Waltham, MA, USA) as described in a previous study. […] The fraction unbound was calculated as the ratio of the drug concentrations in the “buffer” chamber to those in the “sample” chamber. The blood-to-plasma concentration ratio (RB) of DUT was determined as described previously. […] The concentrations of DUT in the plasma sample were determined by the validated HPLC analysis.

[3] = Unbound fraction by rapid equilibrium dialysis, rat plasma; type: in vitro ADME
Description: as §1

[4] = In vivo pharmacokinetic study in rats, oral DUT without or with KET; parameters: species or system rat; details: for AUC(0-t) / Cmax: po, 5 mg/kg
From the text: The animal experiment protocols used in the present study were approved by the Pusan National University-Institutional Animal Care and Use Committee for scientific care and ethical procedures (Busan, Korea; approval date: 01/05/2018; approval number: PNU-2018-1848). Male Sprague–Dawley rats (8-week-old; approximately 250 g) were purchased from DBL Co., Ltd. (Incheon, Korea). The rats were acclimatized in a clean room of the Laboratory Animal Center of Pusan National University (Busan, Korea) for 1 week. Then, they were fasted for 12 h prior to the pharmacokinetic experiment and then anesthetized by intramuscular injection of Zoletil at a dose of 20 mg/kg. The femoral vein and artery of the rats were cannulated with a polyethylene tube (BD Medical; Franklin Lakes, NJ, USA). At approximately 4–6 h after the surgery for cannulation, an intravenous dose of DUT (2.5 mg/kg) simultaneously with or without intravenous KET ([…]) was administered to the rats. Drugs were dissolved in a vehicle consisting of dimethyl sulfoxide, ethanol, and polyethylene glycol 400 at a ratio of 10:5:85 (v/v/v). Blood (approximately 200 μL) was collected in heparin pre-treated microcentrifuge tubes via the femoral artery at 0, 1, 5, 15, 30, 60, 120, 180, 240, 360, 480, and 1200 min after the intravenous dose and at 0, 5, 15, 30, 60, 120, 150, 180, 240, 360, 480, and 1200 min after the oral dose. Following centrifugation of the blood samples at 3000× g at 4 °C for 10 min [19], 100 μL aliquots of plasma were stored at −80 °C.
The half maximal inhibitory concentration (IC50) of KET for the inhibition of the DUT metabolism was determined by the nonlinear regression analysis (GraphPad Prism ver. 5.01; GraphPad Software Inc., San Diego, CA, USA) based on the following Hill equation: y = Min + Max−Min/1 + (x/IC50)^-P where Max and Min are the initial and final y value, respectively, and the exponent P represents the Hill coefficient. Peak plasma concentration (Cmax) and time to reach Cmax (Tmax) were read directly from the observed data. Non-compartmental analysis was conducted to estimate pharmacokinetic parameters such as total area under plasma concentration versus time curve from time zero to time of last sampling (AUClast), total area under plasma concentration versus time curve from time zero to infinity (AUCinf), total plasma clearance (CL), volume of distribution at steady state (Vss), and terminal half-life (t1/2) using the NCA200 and 201 models of WinNonlin ver. 3.1 (Certara USA Inc., Princeton, NJ, USA).

[5] = Unbound fraction by rapid equilibrium dialysis, RLM; type: in vitro ADME, rat
Description: as §1

[6] = Unbound fraction by rapid equilibrium dialysis, HLM; type: in vitro ADME, human
Description: as §1

[7] = Unbound fraction by rapid equilibrium dialysis, human plasma; type: in vitro ADME
Description: as §1

[8] = male, Sprague-Dawley, rat, plasma, oral DUT 5 mg/kg with oral KET (20 mg/kg), n = 4
[9] = male, Sprague-Dawley, rat, plasma, oral DUT 5 mg/kg, DUT alone, n = 4

SMILES: C[C@]12C=CC(=O)N[C@@H]1CC[C@@H]1[C@@H]2CC[C@]2(C)[C@@H](C(=O)Nc3cc(C(F)(F)F)ccc3C(F)(F)F)CC[C@@H]12 [DUT, Dutasteride]
- steady-state serum DUT concentration, median ([1]; healthy humans, 0.5 mg DUT once-daily for more than 6 months): 38 ng/mL
- terminal half-life ([1]; humans, after reaching a steady state): approximately 5 weeks
- unchanged DUT excreted in the urine ([1]; humans): trace amounts
- blood plasma ratio at 60 min, 5 μM ([2]; DUT 5 μM alone): 0.712 ± 0.026
- blood plasma ratio at 60 min, 5 μM ([2]; DUT 5 μM in the presence of KET 5 μM): 0.692 ± 0.036
- fraction of unbound DUT, presence versus absence of KET ([3]; DUT and KET 5 μM, n = 5): no significant differences
- fraction unbound at 5 μM ([3]; Sprague-Dawley, DUT 5 μM, RED device): 0.0115
- concentration at 30 min ([4]; male, Sprague-Dawley, rat, plasma sample collected at 30 min after oral DUT 5 mg/kg, representative chromatogram): 276 ng/mL
- Tmax ([4]; male, Sprague-Dawley, rat, plasma, oral DUT 5 mg/kg, DUT alone, median (range), n = 4, read-out: Tmax (converted)): 1 h
- AUC(0-t) [4, 8]: 6470 ng·h/mL
- Cmax [4, 8]: 419 ± 27 ng/mL
- AUC(0-t) [4, 9]: 4580 ng·h/mL
- Cmax [4, 9]: 289 ± 10 ng/mL
- Tmax ([4]; oral DUT 5 mg/kg with oral KET (20 mg/kg), median, n = 4): 1 h
- fraction of unbound DUT, presence versus absence of KET ([5]; RLM, DUT and KET 5 μM, n = 5): no significant differences
- fraction unbound at 5 μM ([5]; Sprague-Dawley, rat, rat liver microsomes, RLM 1 mg/mL, DUT 5 μM, RED device): 0.0856
- fraction of unbound DUT, presence versus absence of KET ([6]; DUT and KET 5 μM, n = 5): no significant differences
- fraction unbound at 5 μM ([6]; human, human liver microsomes, DUT 5 μM, RED device): 0.091
- fraction unbound at 5 μM ([7]; DUT 5 μM, RED device): 0.0078
- fraction of unbound DUT, presence versus absence of KET ([7]; DUT and KET 5 μM, n = 5): no significant differences
